Assay results from patent US9371527B2, “Compositions and methods related to protein displacement therapy for myotonic distrophy” (University of Rochester, priority 2006, dated 2016).

Tests used:
[1] = system: interaction of CUG repeat RNA with recombinant MBNL1 protein (MBNL1-PL); experiment: Beta-galactosidase enzymatic complementation assay; type: binding, human; details: (CUG)109 tethered to streptavidin plate
Experimental: FIGS. 33A and 33B. […] (CUG)109 transcripts are tethered to the surface of a streptavidin-coated microtiter plate using a capture oligonucleotide that is biotinylated. The capture oligo anneals to complementary sequence at the 3′ end of the CUG repeat RNA. Recombinant human MBNL1 is expressed as a fusion with the PL fragment of beta-galactosidase. PL is a 55 amino acid fragment of beta-galactosidase. […] After incubation with test compound, unbound MBNL1-PL is washed away (FIG. 33B). Next, the complementing fragment of beta-galactosidase is added to determine the amount of MBNL1-PL that continues to interact with (CUG)109 RNA and thereby is retained on the microtiter plate. The binding of complementing fragment of beta-galactosidase to PL reconstitutes its enzymatic activity. This activity is then determined by adding substrate to provide a fluorescence or chemiluminescence signal from active beta-galactosidase. […]
(CUG)109 transcripts are tethered to the surface of a streptavidin-coated microtiter plate using a capture oligonucleotide that is biotinylated. […] Recombinant human MBNL1 is expressed as a fusion with the PL fragment of beta-galactosidase. […] This activity is then determined by adding substrate to provide a fluorescence or chemiluminescence signal from active beta-galactosidase. […]

[2] = target: T1, interaction of CUG repeat RNA with recombinant MBNL1 protein (Homo sapiens, UniProt Q9NR56); experiment: Fluorescence anisotropy assay for inhibitors of CUG repeat RNA-MBNL1 interaction; type: binding; details: (CUG)36 transcript 2 nM, aminoglycoside 10 or 50 μM, MBNL1 100 nM
T1 construct: GST (with Prescission protease cleavage site) (N); made in house; host or cells: E. coli BL21(DE3)
T1 sequence (Q9NR56 1-382 isoform Q9NR56-5): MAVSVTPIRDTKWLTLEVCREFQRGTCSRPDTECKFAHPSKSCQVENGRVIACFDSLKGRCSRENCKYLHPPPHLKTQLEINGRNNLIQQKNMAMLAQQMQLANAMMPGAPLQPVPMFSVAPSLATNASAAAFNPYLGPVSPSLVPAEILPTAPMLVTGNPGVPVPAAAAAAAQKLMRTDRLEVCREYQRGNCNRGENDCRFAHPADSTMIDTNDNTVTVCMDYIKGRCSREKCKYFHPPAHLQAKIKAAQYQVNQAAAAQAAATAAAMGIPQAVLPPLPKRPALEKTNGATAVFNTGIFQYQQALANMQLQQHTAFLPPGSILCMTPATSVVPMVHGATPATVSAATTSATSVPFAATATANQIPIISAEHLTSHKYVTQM
Experimental: Fluorescein-labeled (CUG)36 transcript (2 nM) was incubated first with aminoglycoside compound (10 or 50 μM) and then with excess amount of recombinant MBNL1 protein (100 nM). To calculate the fraction of CUG repeat RNA that remains bound to MBNL1 protein (“% bound CUG^exp”, vertical axis), results are expressed as the percentage of maximal fluorescence anisotropy in assays from which aminoglycosides were omitted. […] Values are the average +/−SD from three measurements.
Fluorescein-labeled (CUG)36 RNA (2 nM) was incubated with MBNL1 protein (100 nM) and anisotropy was measured at time points ranging from 1 to 90 minutes. Increasing values for fluorescence anisotropy indicate interaction of fluorescein-labeled (CUG)36 transcript with MBNL1 protein.
MBNL1 protein is known to bind CUG repeat RNAs that form a stable secondary structure (hairpin structure). Aminoglycoside antibiotics were examined to determine whether these compounds can inhibit the interaction of MBNL1 protein with CUG repeat RNA. Aminoglycosides were selected because they are known to bind structured RNA. […] To calculate the fraction of CUG repeat RNA that remains bound to MBNL1 protein (“% bound CUG^exp”, vertical axis), results are expressed as the percentage of maximal fluorescence anisotropy in assays from which aminoglycosides were omitted. […]

[3] = target: T2, interaction of recombinant MBNL1 protein with (CUG)109 RNA (Homo sapiens, UniProt Q9NR56); experiment: Filter binding screening assay for inhibitors of MBNL1-(CUG)109 RNA interaction; details: compound+(CUG)109 RNA 5 minutes, then recombinant MBNL1 15 minutes, among 9 aminoglycoside compounds tested
T2 construct: GST (with Prescission protease cleavage site) (N); made in house; host or cells: E. coli BL21(DE3)
T2 sequence (Q9NR56 1-382 isoform Q9NR56-5): as above
Experimental: The order of addition was compound+(CUG)109 RNA (incubate 5 minutes), followed by recombinant MBNL1 protein (15 minute incubation), followed by application to filter.
Next, optimal conditions were defined (ionic-strength, monovalent cations, Mg^++ and other additions, temperature) for MBNL1-poly(CUG)^109 binding in solution. All forms of recombinant MBNL1 that were tested (GST fused or cleaved, full-length or truncation of C terminal hydrophobic region, 41 or 42 kD isoform) bind to poly(CUG)^109 at low protein concentration (FIG. 3, Kd values ˜10 nM), as determined by nitrocellulose filter binding assays. In this assay, nonspecific binding of labeled RNA to nitrocellulose was very low (<0.2% of maximal positive signal). As described below, disclosed herein are methods comprising a non-radioactive microtiter plate filter binding assay similar to the one used to examine binding activities of different forms of recombinant MBNL1 in FIG. 3.
The two components of this assay, fluorescence-labeled poly(CUG)^109 (FIG. 2B) and recombinant MBNL1 (FIG. 2A), have been developed and optimal conditions for MBNL1 binding to poly(CUG)^exp have been defined (50 mM Tris pH 8.0, 50 mM NaCl, 50 mM KCl, 1 mM Mg^++, 0.1 mM DTT) (see Preliminary Studies). Pilot binding assays have been carried out using nitrocellulose filters (FIG. 3A). […]

HSA^LR transgenic mice = experiment: Electromyography of myotonia after CAG25 morpholino; type: in vivo; details: p<0.001
Description: FIG. 17 uses Electromyography to show the improvement of myotonia at 3 and 6 weeks after injection of CAG25 morpholino into tibialis anterior of HSA^LR transgenic mice. Myotonia is a state of muscle hyperexcitability in which muscle fibers display repetitive action potentials. Myotonia in the HSA^LR transgenic mouse model of myotonic dystrophy is caused by abnormal regulation of alternative splicing for ClC-1 and subsequent reduction of chloride ion channels in muscle fibers. A parallel abnormality of ClC-1 alternative splicing exists in human myotonic dystrophy. […] For each mouse, CAG25 morpholino dissolved in saline was injected into tibialis anterior muscle of one hindlimb, whereas saline alone was injected into tibialis anterior on the opposite side. The side of morpholino injection was randomly assigned. Electromyography was performed by a blinded examiner Severity of myotonia was graded on a 4 point scale: 0=no myotonic, 1=occasional myotonic discharge (fewer than 25% of needle insertions), 2=abundant myotonic discharges (25-75% of needle insertions), and 3=florid myotonia (myotonic discharges in nearly every needle insertion).

[4] = system: ClC-1 exon 7a alternative splicing; experiment: RT-PCR of ClC-1 alternative splicing after CAG25 morpholino; type: in vivo, HSA^LR transgenic mice; details: tibialis anterior, vs saline contralateral
Description: Adult wild-type (WT) mice show low levels of exon 7a inclusion. In HSA^LR transgenic mice, the fraction of ClC-1 splice products that include exon 7a is increased. Inclusion of exon 7a causes a frame shift and creates a premature termination codon that truncates most of the ClC-1 coding sequence. Of note, transcripts that include exon 7a have accelerated degradation via nonsense mediated decay, therefore they are underrepresented at steady state and on this gel. The higher bands on the gel are other alternative splice products, as shown (Mankodi et al, Molecular Cell 10:35-44, 2002.) In HSA^LR transgenic mice, injection of CAG morpholino into tibialis anterior improved the defect of ClC-1 alternative splicing. Morpholino-treated muscle is indicated by “+”. Results from tibialis anterior in the opposite hindlimb, injected with saline alone, are indicated by “−”.

ClC-1 chloride channel = experiment: ClC-1 immunofluorescence after CAG25 morpholino; type: in vivo, HSA^LR transgenic mice; details: 3 weeks following injection
Description: Immunofluorescence for ClC-1 chloride channel is shown in sections of tibialis anterior muscle from HSA^LR transgenic mice. Muscle fibers show mosaic expression of ClC-1 in HSA^LR muscle injected with saline. Some of these fibers are completely lacking in ClC-1 protein.

[5] = system: MBNL1 protein in ribonuclear foci; experiment: MBNL1 immunofluorescence after CAG25 morpholino injection into tibialis anterior; type: in vivo, HSA^LR transgenic mice; details: intramuscular injection + electroporation, vs saline contralateral
Experimental: The morpholino was compromised entirely of CAG repeats and was 25 nucleotides in length (CAG25). CAG25 morpholino dissolved in phosphate buffered saline was injected into tibialis anterior muscle of HSA^LR transgenic mice, followed by electroporation to facilitate entry into muscle cells. The contralateral tibialis anterior muscle was injected with saline alone, followed by electroporation. The distribution of MBNL1 in tibialis anterior was determined by immunofluorescence with anti-MBNL1 antibody A2764. In muscle injected with saline, MBNL1 was sequestered in ribonuclear foci (nuclei are counterstained with DAPI).

[6] = system: recombinant MBNL1 protein with (CUG)109 RNA; experiment: Gel shift assay of MBNL1 with (CUG)109 RNA in presence of CAG25 morpholino; type: binding, human; details: increasing amounts of CAG25 morpholino
Description: Interaction of recombinant MBNL1 protein with (CUG)109 RNA was examined by gel shift assay, in the presence of increasing amounts of CAG25 morpholino.
Also disclosed herein are methods involving the interaction of soluble, fluorescently-labeled MBNL1 protein with poly(CUG)^109 tethered at the surface of a microtiter plate. Different commercial microtiter plates for capacity to bind in vitro transcribed poly(CUG)^109 and background activity (non-specific binding of labeled MBNL1). For tethering poly(CUG)^109 to plates, a “capture” oligodeoxynucleotide (ODN) complementary to the A-rich 3′ terminus of the poly(CUG)^109 transcript, labeled either with biotin or a reactive group at the 5′ end for attachment to the plate (shown in FIG. 3C in the case of biotin) was used. […] Next, the concentration of capture ODN that saturates binding sites (12.5 pmoles/100 μl/well) and the concentration of poly(CUG)^109 that saturates the capture ODN (of 5 pmole added per well, 0.5 pmole was bound to capture ODN) were determined. Additionally, conditions for fluorescence labeling of MBNL1 protein via conjugation between primary amines on protein and fluorescein-EX dyes (Molecular Probes) were determined. The detection threshold and range of linearity was determined for labeled protein in gels and microplates (FIG. 2B). […]

[7] = system: SERCA1 alternative splicing; experiment: RT-PCR of SERCA1 alternative splicing after CAG25 morpholino; type: in vivo, HSA^LR transgenic mice; details: 3 weeks following CAG25 injection, tibialis anterior, 4 mice
Description: Morpholino-treated muscle is indicated by “+”. Results from tibialis anterior in the opposite hindlimb, injected with saline alone, are indicated by “−”. The side of morpholino injection was randomly determined, and this assignment remained blinded until after the splicing analysis was completed. Het. dupl. indicates a heteroduplex PCR product.

[8] = system: ZASP alternative splicing; experiment: RT-PCR of ZASP alternative splicing after CAG25 morpholino; type: in vivo, HSA^LR transgenic mice; details: 3 weeks following CAG25 injection, tibialis anterior
Description: Morpholino-treated muscle is indicated by “+”. Results from tibialis anterior in the opposite hindlimb, injected with saline alone, are indicated by “−”. The side of morpholino injection was randomly determined, and this assignment remained blinded until after the splicing analysis was completed.

With `CCCN(CCCN(C)C)c1cc(/C=C2/Sc3ccccc3N2C)c2ccccc2[n+]1-c1ccccc1` [SybrGreen] the “amount of MBNL1-PL retained on plate (beta-galactosidase activity)” value [1] was “reduce the amount of MBNL1-PL retained on plate”.

With neomycin the “inhibition of MBNL1 binding to CUG repeat RNA (% bound CUG^exp)” value [2] was “strongest inhibition” and the “activity to inhibit formation of MBNL1-poly(CUG)^exp RNA-protein complexes” value [3] was “highest activity”.

With “CAG25 morpholino: morpholino comprised entirely of CAG repeats, 25 nucleotides in length (antisense AGCAGCAGCAGCAGCAGCAGCAGCA; all phosphorodiamidate morpholino (PMO))” the “myotonia severity (EMG)” value (HSA^LR transgenic mice; 3 weeks after injection) was “significant reduction of myotonia”, the “myotonia severity (EMG)” value (HSA^LR transgenic mice; 6 weeks after injection) was “significant reduction of myotonia” and the “ClC-1 alternative splicing (exon 7a)” value [4] was “improved the alternative splicing of ClC-1”. The “expression of ClC-1 chloride channel at the surface membrane” value (ClC-1 chloride channel) was “increased expression ClC-1 protein at the surface membrane”, the “distribution of MBNL1 in tibialis anterior nuclei” value [5] was “more widely distributed throughout the nucleus” and the “inhibition of interaction of MBNL1-poly(CUG)^exp RNA in vitro” value [6] was “inhibits the interaction”. For the same molecule, the SERCA1 alternative splicing [7] was “improved the defect of SERCA1 alternative splicing” and the ZASP alternative splicing [8] was “improved regulation of alternative splicing for ZASP”.
